Results as given in US12459898B2, “Polycationic amphiphiles as antimicrobial agents and methods using same” (Temple University-Of The Commonwealth System of Higher …, priority 2016, dated 2025).

Key:
[1] = tested on: methicillin-susceptible Staphylococcus aureus MSSA (SH1000); experiment: Minimum inhibitory concentration (MIC), S. aureus; assay type: cell-based; conditions: MH media, 37° C., 72 hours, visual growth
Experimental: (§1) As used herein, the term “minimum inhibitory concentration (MIC)” refers to the lowest concentration of an antimicrobial agent that will inhibit the visible growth of a microorganism after overnight incubation. MIC values against bacteria, for example, the Gram-positive Staphylococcus aureus and Enterococcus faecalis and the Gram-negative Escherichia coli and Pseudomonas aeruginosa were determined by standard methods. See also P. A. Wayne, Methods for Dilution Antimicrobial Tests for Bacteria that Grow Aerobically; Approved Standard, Ninth Edition, 2012, CLSI Document M07-A9, Vol. 32 No. 2, which is incorporated by reference herein in its entirety.
(§2) For all biological assays, laboratory strains of methicillin-susceptible Staphylococcus aureus MSSA (SH1000), Enterococcus faecalis (OG1RF), Escherichia coli (MC4100), Pseudomonas aeruginosa (PAO1), community-acquired methicillin-resistant Staphylococcus aureus CA-MRSA (USA300-0114), and hospital-acquired methicillin-resistant Staphylococcus aureus HA-MRSA (ATCC 33591) were grown with shaking at 37° C. overnight from freezer stocks in 10 mL of the indicated media.
(§3) Compounds were serially diluted two-fold from stock solutions to yield twelve test concentrations. Overnight S. aureus, E. faecalis, E. coli, P. aeruginosa, USA300-0114 (CA-MRSA), and ATCC 33591 (HA-MRSA) cultures diluted to ca. 10^6 cfu/mL in MH media and 100 μL were inoculated into each well of a U-bottom 96-well plate (BD Biosciences, BD 351177) containing 100 μL of compound solution. Plates were incubated statically at 37° C. for 72 hours upon which time wells were evaluated visually for bacterial growth. The MIC was determined as the lowest concentration of compound resulting in no bacterial growth visible to the naked eye, based on the majority of three independent experiments. Aqueous DMSO controls were conducted as appropriate for each compound.

[2] = tested on: Enterococcus faecalis (OG1RF); experiment: Minimum inhibitory concentration (MIC), E. faecalis; assay type: cell-based; conditions: MH media, 37° C., 72 hours, visual growth
Experimental: as §1, §2, §3

[3] = tested on: Escherichia coli (MC4100); experiment: Minimum inhibitory concentration (MIC), E. coli; assay type: cell-based; conditions: MH media, 37° C., 72 hours, visual growth
Experimental: as §1, §2, §3

[4] = tested on: Pseudomonas aeruginosa (PAO1); experiment: Minimum inhibitory concentration (MIC), P. aeruginosa; assay type: cell-based; conditions: MH media, 37° C., 72 hours, visual growth
Experimental: as §1, §2, §3

[5] = tested on: community-acquired methicillin-resistant Staphylococcus aureus CA-MRSA (USA300-0114); experiment: Minimum inhibitory concentration (MIC), CA-MRSA; assay type: cell-based; conditions: MH media, 37° C., 72 hours, visual growth
Experimental: as §1, §2, §3

[6] = tested on: hospital-acquired methicillin-resistant Staphylococcus aureus HA-MRSA (ATCC 33591); experiment: microbe, parasite or virus in culture; assay type: cell-based; conditions: Staphylococcus aureus, 72 h, read-out: MIC, HA-MRSA
Experimental: as §1, §2, §3

[7] = tested on: red blood cells (mechanically defibrinated sheep blood); experiment: Red blood cell (RBC) lysis assay (Lysis20); assay type: cell-based; conditions: sheep RBCs in PBS, 37° C., 1 hour, absorbance 540 nm; Table 1
From the text: These assessments followed standard protocols (Minbiole et al., 2016, Tetrahedron, 72: 3559-3566, Forman et al., 2016, ChemMedChem, 11: 1401-1405, Forman et al., 2016, ChemMedChem, 11: 958-962, Mitchell et al., 2015, ChemBioChem, 16: 2299-2303, Jennings et al., 2015, ACS Inf. Dis, 1: 304-308, Paniak et al., 2014, Bioorg. Med. Chem. Lett, 24: 5824-5828, Ator et al., 2014, Bioorg. Med. Chem. Lett, 24: 3706-3709, Jennings et al., 2014, ChemBioChem, 15: 2211-2215, Black et al., 2014, Bioorg. Med. Chem. Lett, 24, 99-102, Grenier et al., 2012, Bioorg. Med. Chem. Lett, 22: 4055-4058).
RBC lysis assays were performed on mechanically defibrinated sheep blood (Hemostat Labs: DSB030). 1.5 mL of blood was placed into a microcentrifuge tube and centrifuged at 10,000 rpm for ten minutes. The supernatant was removed and the cells were resuspended with 1 mL of phosphate-buffered saline (PBS). The suspension was centrifuged as previously, the supernatant was removed, and cells were resuspended two more times. The final cell suspension was diluted twentyfold with PBS. The twentyfold suspension dilution was then aliquoted into microcentrifuge tubes containing compound serially diluted in PBS. TritonX (1% by volume) served as a positive control (100% lysis marker) and sterile PBS served as a negative control (0% lysis marker). Samples were then placed in an incubator at 37° C. and shaken at 200 rpm. After 1 hour, the samples were centrifuged at 10,000 rpm for ten minutes. The absorbance of the supernatant was measured with a UV spectrometer at a 540 nm wavelength.

[8] = tested on: six bacteria (SA, EF, EC, PA, CA-MRSA, HA-MRSA); experiment: Antimicrobial activity (MIC) over the panel of six bacteria; assay type: cell-based
Experimental: (§4) For the tris-pyridine system, it was initially attempted to alkylate the commercially available O3Pyr, which led to no reaction under a number of SN2-type reaction conditions, presumably due to steric hindrance next to the nucleophilic pyridine nitrogen. The preparation of the “para” isomer via a precedented reductive amination shown in FIG. 4 (52%) was then carried out (Oh et al., 2007, Korean Chem. Soc, 28: 2193-2194, Abdel-Magid et al., 1996, J. Org. Chem, 61: 3849-3862). […] Attempts to prepare homologs led to variable yields and unacceptable purity. While not wishing to be bound by any particular theory it was hypothesized that this could have resulted from a fragmentation event driven by the central nitrogen, which might be circumvented by a change in the electronic distribution of the QAC. […] These amphiphiles were prepared in 71-97% yields, again after recrystallization or trituration. […]
Compounds were serially diluted two-fold from stock solutions to yield twelve test concentrations. […] Plates were incubated statically at 37° C. for 72 hours upon which time wells were evaluated visually for bacterial growth. The MIC was determined as the lowest concentration of compound resulting in no bacterial growth visible to the naked eye, based on the majority of three independent experiments. […]

[9] = Stability of the prepared amphiphiles; assay type: physicochemical; conditions: observation after preparation
Experimental: as §4

SMILES	MIC [1] [µM]	MIC [2] [µM]	MIC [3] [µM]	MIC [4] [µM]	MIC [5] [µM]	MIC [6] [µM]	Lysis20 (highest concentration at which <20% of RBCs are lysed) [7] [μm]	antimicrobial activity / bioactivity in words [8]	stability [9]
CCCCCCCCCCC[n+]1ccc(CCCc2cc[n+](CCCCCCCCCCC)cc2)cc1 [2Pyr-11,11]	0.5	0.25	0.5	2	0.25	0.5	8	nanomolar inhibition against 5 of 6 bacteria tested	–
CCCCCCCCCC[n+]1ccc(CN(Cc2cc[n+](CCCCCCCCCC)cc2)Cc2cc[n+](CCCCCCCCCC)cc2)cc1 [P3Pyr-10,10,10]	0.5	1	1	2	0.5	0.5	4	–	poor stability
CCCCCCCCCCCC[n+]1ccc(CN(Cc2cc[n+](CCCCCCCCCCCC)cc2)Cc2cc[n+](CCCCCCCCCCCC)cc2)cc1 [P3Pyr-12,12,12]	2	2	2	8	1	2	8	–	poor stability
